According to paper PMC3610419, “A Randomized, Double-Blind Placebo Controlled Trial of Balapiravir, a Polymerase Inhibitor, in Adult Dengue Patients” (The Journal of Infectious Diseases, 2012):

Tests used:
[1] = 4500 mg twice daily of balapiravir, HCV-infected persons, cited from earlier work
HCV = details: cited from earlier work
[2] = Predefined clinical and routine laboratory endpoints in adult dengue patients; format: in vivo, human; details: for Maximum percentage increase of hematocrit level, Mean / Maximum percentage increase of hematocrit level, Median (IQR): from baseline; for Minimum quality of life score, Mean / Minimum quality of life score, Median (IQR): visual analogue scale 0-100
From the text: Key viremia endpoints of the study were as follows: area under the log-transformed viremia curve (AUC) from first dose to the end of study day 7 (study hour 168), calculated on the basis of the trapezoidal rule with values below the limit of detection replaced by half of the detection limit; time to first viremia level of <1000 copies/mL until study day 7; and time to the first negative NS1 test result. Other predefined key endpoints included fever clearance time, defined as the time from the start of treatment to the start of the first 48-hour period during which axillary temperature remained <37.5°C; maximum hematocrit level; maximum percentage increase of hematocrit level from baseline; platelet count nadir; and lowest recorded quality of life score.
Time to event endpoints were compared between treatment groups on the basis of Cox regression and continuous endpoints on the basis of linear regression. Analyses were adjusted for the predose value of the respective endpoint; viremia and NS1 endpoints were additionally adjusted for dengue serotype. For all endpoints, we report P values of a trend test for a dose-response relationship with treatment entered as a continuous variable with values 0 (placebo), 1 (low-dose), and 2 (high-dose) into the regression model.

NS1 = NS1 antigenemia (Platelia NS1 assay) in adult dengue patients, randomized placebo-controlled trial; format: in vivo, human; details: Kaplan-Meier estimate
Protocol: Randomization to treatment group was by computer-generated randomization sequencing in blocks of 2. Balapiravir was formulated in a 500-mg film-coated tablet. The placebo consisted of an identical looking tablet containing excipient only. All balapiravir and placebo tablets were provided by F. Hoffmann-La Roche. Patients in cohort 1 (n = 20) received 1500 mg of balapiravir or an identical placebo orally every 12 hours for 5 days (10 doses). The decision to dose escalate (to 3000 mg) was made after review of the partially unblinded group mean clinical and laboratory data acquired from patients in cohort 1. Patients in cohort 2 (n = 44) received 3000 mg of balapiravir or placebo orally twice a day for 5 days (10 doses).

[3] = High-dose (3000 mg twice a day, 5 days), n = 22
[4] = Low-dose (1500 mg twice a day, 5 days), n = 10

Q: Which “mean Cmin” value [1] does the source give for CC(C)C(=O)OC[C@@]1(N=[N+]=[N-])O[C@@H](n2ccc(N)nc2=O)[C@H](OC(=O)C(C)C)[C@@H]1OC(=O)C(C)C [Balapiravir] here?
A: 21 µM

Q: And the Cmax ([1]; read-out: mean Cmax)?
A: 88 µM

Q: And the “antiviral effect (reduction in plasma HCV RNA level)” value (HCV; 500 mg twice daily)?
A: no significant antiviral effect

Q: What about the “clinical safety in extended courses” value (HCV; extended courses (2–3 months) in conjunction with pegylated interferon and ribavirin, HCV infection) of the same molecule?
A: clinical safety signals were detected

Q: What about the “effect on plasma HCV levels” value (HCV; monotherapy twice per day for 14 days, chronic HCV) of the same molecule?
A: reduced plasma HCV levels in a dose- and time-dependent manner

Q: What about the tolerability (HCV; monotherapy twice per day for 14 days, doses up to 3000 mg, adult male patients) of the same molecule?
A: well-tolerated

Q: What about the “effect on fever clearance time, clinical signs and routine laboratory findings” value ([2]; 1500 mg or 3000 mg twice daily for 5 days versus placebo) of the same molecule?
A: did not affect

Q: And the “Maximum ALT level, Mean” value [2, 3]?
A: 75.2 IU/L

Q: And the “Maximum ALT level, Median (IQR)” value [2, 3]?
A: 68.5 (33.3–104.5) IU/L

Q: And the “Maximum AST level, Mean” value [2, 3]?
A: 118.4 IU/L

Q: And the “Maximum AST level, Median (IQR)” value [2, 3]?
A: 108.0 (45.0–151.5) IU/L

Q: What about the “Maximum INR, Mean” value [2, 3] of the same molecule?
A: 1.27

Q: What about the “Maximum INR, Median (IQR)” value [2, 3] of the same molecule?
A: 1.17 (1.09–1.22)

Q: And the “Maximum aPTT, Mean” value [2, 3]?
A: 41.8 s

Q: What about the “Maximum aPTT, Median (IQR)” value [2, 3] of the same molecule?
A: 41.8 (38.3–44.1) s

Q: What about the “Maximum recorded hematocrit level, Mean” value [2, 3] of the same molecule?
A: 44.6%

Q: And the “Maximum recorded hematocrit level, Median (IQR)” value [2, 3]?
A: 45.1 (41.8–46.1) %

Q: What about the “Median fever clearance time (IQR)” value [2, 3] of the same molecule?
A: 3 (2–4) d

Q: And the “Minimum fibrinogen level, Mean” value [2, 3]?
A: 1.88 g/L

Q: What about the “Minimum fibrinogen level, Median (IQR)” value [2, 3] of the same molecule?
A: 1.86 (1.60–2.03) g/L

Q: What about the “Minimum platelet count, Mean” value [2, 3] of the same molecule?
A: 54.4 10^9 cells/L

Q: What about the “Minimum platelet count, Median (IQR)” value [2, 3] of the same molecule?
A: 52 (25.5–64.8) 10^9 cells/L

Q: And the “Maximum percentage increase of hematocrit level, Mean” value [2, 3]?
A: 2.6%

Q: What about the “Maximum percentage increase of hematocrit level, Median (IQR)” value [2, 3] of the same molecule?
A: 1.2 (−4.1–9.2) %

Q: And the “Minimum quality of life score, Mean” value [2, 3]?
A: 74.45

Q: And the “Minimum quality of life score, Median (IQR)” value [2, 3]?
A: 77.5 (67.8–82.0)

Q: What about the “Maximum ALT level, Mean” value [2, 4] of the same molecule?
A: 96.3 IU/L

Q: And the “Maximum ALT level, Median (IQR)” value [2, 4]?
A: 97.5 (58.0–128.8) IU/L

Q: What about the “Maximum AST level, Mean” value [2, 4] of the same molecule?
A: 143.6 IU/L

Q: And the “Maximum AST level, Median (IQR)” value [2, 4]?
A: 157.5 (116.5–171.5) IU/L

Q: What about the “Maximum INR, Mean” value [2, 4] of the same molecule?
A: 1.17

Q: What about the “Maximum INR, Median (IQR)” value [2, 4] of the same molecule?
A: 1.16 (1.05–1.26)

Q: What about the “Maximum aPTT, Mean” value [2, 4] of the same molecule?
A: 41.3 s

Q: What about the “Maximum aPTT, Median (IQR)” value [2, 4] of the same molecule?
A: 40.6 (39.6–43.1) s

Q: What about the “Maximum recorded hematocrit level, Mean” value [2, 4] of the same molecule?
A: 46.7%

Q: What about the “Maximum recorded hematocrit level, Median (IQR)” value [2, 4] of the same molecule?
A: 45.8 (43.8–49.3) %

Q: And the “Median fever clearance time (IQR)” value [2, 4]?
A: 3 (2–4) d

Q: What about the “Minimum fibrinogen level, Mean” value [2, 4] of the same molecule?
A: 1.94 g/L

Q: And the “Minimum fibrinogen level, Median (IQR)” value [2, 4]?
A: 2.08 (1.68–2.25) g/L

Q: What about the “Minimum platelet count, Mean” value [2, 4] of the same molecule?
A: 26.3 10^9 cells/L

Q: And the “Minimum platelet count, Median (IQR)” value [2, 4]?
A: 23 (16.5–33.0) 10^9 cells/L

Q: What about the “Maximum percentage increase of hematocrit level, Mean” value [2, 4] of the same molecule?
A: 11.5%

Q: And the “Maximum percentage increase of hematocrit level, Median (IQR)” value [2, 4]?
A: 11.8 (3.1–15.3) %

Q: What about the “Minimum quality of life score, Mean” value [2, 4] of the same molecule?
A: 78.3

Q: What about the “Minimum quality of life score, Median (IQR)” value [2, 4] of the same molecule?
A: 77.0 (69.8–89.0)

Q: And the “Median time to first negative NS1 test result (IQR)” value (NS1; [3])?
A: 4 (3–6) d

Q: And the “Median time to first negative NS1 test result (IQR)” value (NS1; [4])?
A: 3 (3–14) d
